Reference: paper PMC10575921 (Nature Communications, 2023)
“And” between values parts separate entries of the source, which are not always exact repeats. Equal values may be shown once.

Target: SARS-CoV-2 3CL^pro C145G (Severe acute respiratory syndrome coronavirus 2, UniProt P0DTD1, C3408G)
Assay type: binding

| SMILES | -TΔS |
| --- | --- |
| CC(C)(C)[C@H](NS(=O)(=O)C1CC1)C(=O)N1CC2(C[C@H]1C(=O)N[C@H](C#N)C[C@@H]1CCNC1=O)SCCS2 [compound 12] | -1.19 ± 0.325 kcal/mol and -1.19 kcal/mol |
| CC(C)(C)NC(=O)N[C@H](C(=O)N1CC2(C[C@H]1C(=O)N[C@H](C#N)C[C@@H]1CCNC1=O)SCCS2)C(C)(C)C [compound 7] | -4.818 ± 0.268 kcal/mol and -4.818 kcal/mol |
| CC(C)(C)[C@H](NC(=O)C1(F)CC1)C(=O)N1CC2(C[C@H]1C(=O)N[C@H](C#N)C[C@@H]1CCNC1=O)SCCS2 [compound 10] | -2.18 ± 0.562 kcal/mol and -2.18 kcal/mol |
| CC(C)(C)NC(=O)N[C@H](C(=O)N1C[C@H]2[C@@H]([C@H]1C(=O)N[C@H](C#N)C[C@@H]1CCNC1=O)C2(C)C)C(C)(C)C [compound 2] | -5.978 ± 0.1 kcal/mol and -5.978 kcal/mol |
| CC(C)(C)[C@H](NS(C)(=O)=O)C(=O)N1CC2(C[C@H]1C(=O)N[C@H](C#N)C[C@@H]1CCNC1=O)SCCS2 [compound 11] | -3.559 ± 0.332 kcal/mol and -3.559 kcal/mol |
